This note sets out measurements from patent US4855290A (priority 1985, dated 1989).

Data set [1] deals with central muscarinic receptors (M1) (Rattus norvegicus, UniProt P08482). The data set can be described thus: biochemical. It is filed as binding.
Data set [2] concerns acetyl- and butyryl-cholinesterase. The data set is described as follows: Resistance to cholinesterases. Type of data set: in vitro ADME.

Chain of central muscarinic receptors (M1) (P08482 whole entry): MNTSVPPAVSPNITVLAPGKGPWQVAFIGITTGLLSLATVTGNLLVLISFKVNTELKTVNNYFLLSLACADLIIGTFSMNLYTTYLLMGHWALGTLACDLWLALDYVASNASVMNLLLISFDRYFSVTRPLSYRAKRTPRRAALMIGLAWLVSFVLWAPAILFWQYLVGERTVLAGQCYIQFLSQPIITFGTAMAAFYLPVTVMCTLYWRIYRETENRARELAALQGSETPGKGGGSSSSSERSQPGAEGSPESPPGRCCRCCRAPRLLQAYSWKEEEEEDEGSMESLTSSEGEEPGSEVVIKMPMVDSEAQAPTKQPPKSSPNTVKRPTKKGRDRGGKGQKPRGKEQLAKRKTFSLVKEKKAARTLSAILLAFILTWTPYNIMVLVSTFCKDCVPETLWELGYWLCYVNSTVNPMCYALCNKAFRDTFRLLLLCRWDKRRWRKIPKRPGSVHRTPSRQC

As to `CC1OC2(CS1)CN1CCC2CC1` (centres unmarked) [(Ia), 2-methylspiro(1,3-oxathiolan-5,3')quinuclidine], in data set [1], the “pharmacological activity (muscarinic)” value is recorded as “muscarinic agonist with a high specificity for the central nervous system”. Also, the “destruction by acetyl- and butyryl-cholinesterase” value in data set [2] was “not destroyed”.
